pIC50: −log10 of the molar value.

A word on the pIC50: it is the IC50 on a negative log10 scale, so that one unit is a factor of ten. Low values mean a high IC50, high ones a low IC50.

The target of assay [1] is Sodium-dependent serotonin transporter (Rattus norvegicus, UniProt P31652). Briefly: Inhibition of [3H]paroxetine binding to Serotonin transporter.
The target of assay [2] is Sodium-dependent serotonin transporter (Rattus norvegicus) (UniProt P31652). Nature of the assay: Ratio of IC50(5-HT) to the IC50(DA).
Assay [3] deals with T1, Sodium-dependent dopamine transporter (Rattus norvegicus, UniProt P23977). Briefly: Inhibition of [3H]WIN-35428l binding to Dopamine transporter.
The target in assay [4] is T2, Norepinephrine transporter (Rattus norvegicus, UniProt Q9WTR4). Briefly: Inhibition of [3H]mazindol binding to Norepinephrine transporter.
The target of assay [5] is T2, Norepinephrine transporter. Briefly: Compound was evaluated for the inhibition of [3H]mazindol binding to norepinephrine (NE) transporter.
Assay [6] has as its target T1, Sodium-dependent dopamine transporter. Briefly: Compound was evaluated for the inhibition of [3H]WIN-35428l binding to dopamine transporter.

T2 sequence (Q9WTR4 whole entry): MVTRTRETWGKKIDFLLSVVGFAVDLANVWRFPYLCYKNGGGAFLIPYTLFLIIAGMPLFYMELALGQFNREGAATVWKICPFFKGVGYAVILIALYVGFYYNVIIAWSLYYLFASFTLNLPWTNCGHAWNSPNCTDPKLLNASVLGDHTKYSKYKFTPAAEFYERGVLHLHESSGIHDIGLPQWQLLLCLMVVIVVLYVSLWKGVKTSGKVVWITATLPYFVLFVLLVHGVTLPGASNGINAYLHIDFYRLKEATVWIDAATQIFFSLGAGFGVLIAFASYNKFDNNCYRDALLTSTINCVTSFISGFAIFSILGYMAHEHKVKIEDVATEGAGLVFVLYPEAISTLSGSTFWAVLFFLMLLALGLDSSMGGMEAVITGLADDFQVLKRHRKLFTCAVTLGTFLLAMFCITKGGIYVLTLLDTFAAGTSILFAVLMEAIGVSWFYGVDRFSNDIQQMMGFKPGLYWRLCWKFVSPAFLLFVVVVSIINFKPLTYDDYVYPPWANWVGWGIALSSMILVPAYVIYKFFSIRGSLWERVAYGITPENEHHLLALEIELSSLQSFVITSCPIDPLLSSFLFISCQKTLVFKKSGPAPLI
Sequence of Sodium-dependent serotonin transporter (P31652 whole entry): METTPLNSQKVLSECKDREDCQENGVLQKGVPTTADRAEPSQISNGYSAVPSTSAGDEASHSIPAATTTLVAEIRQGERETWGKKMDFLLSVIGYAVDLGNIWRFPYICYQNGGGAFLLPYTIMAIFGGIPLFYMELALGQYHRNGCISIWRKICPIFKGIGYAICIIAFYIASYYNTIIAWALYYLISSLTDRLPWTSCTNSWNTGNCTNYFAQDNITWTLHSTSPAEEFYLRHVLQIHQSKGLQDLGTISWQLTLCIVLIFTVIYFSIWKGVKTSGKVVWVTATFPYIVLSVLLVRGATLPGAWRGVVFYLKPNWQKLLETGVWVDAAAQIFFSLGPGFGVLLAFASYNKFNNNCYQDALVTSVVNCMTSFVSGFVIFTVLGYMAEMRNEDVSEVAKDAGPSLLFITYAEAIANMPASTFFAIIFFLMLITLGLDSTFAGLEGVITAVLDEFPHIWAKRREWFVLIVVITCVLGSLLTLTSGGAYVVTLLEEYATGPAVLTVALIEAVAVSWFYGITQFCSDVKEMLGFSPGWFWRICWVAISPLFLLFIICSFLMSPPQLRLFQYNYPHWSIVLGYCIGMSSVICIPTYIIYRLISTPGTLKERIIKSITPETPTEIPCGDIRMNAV
Sequence of Sodium-dependent serotonin transporter (Rattus norvegicus) (P31652 whole entry): as above
T1 sequence (P23977 whole entry): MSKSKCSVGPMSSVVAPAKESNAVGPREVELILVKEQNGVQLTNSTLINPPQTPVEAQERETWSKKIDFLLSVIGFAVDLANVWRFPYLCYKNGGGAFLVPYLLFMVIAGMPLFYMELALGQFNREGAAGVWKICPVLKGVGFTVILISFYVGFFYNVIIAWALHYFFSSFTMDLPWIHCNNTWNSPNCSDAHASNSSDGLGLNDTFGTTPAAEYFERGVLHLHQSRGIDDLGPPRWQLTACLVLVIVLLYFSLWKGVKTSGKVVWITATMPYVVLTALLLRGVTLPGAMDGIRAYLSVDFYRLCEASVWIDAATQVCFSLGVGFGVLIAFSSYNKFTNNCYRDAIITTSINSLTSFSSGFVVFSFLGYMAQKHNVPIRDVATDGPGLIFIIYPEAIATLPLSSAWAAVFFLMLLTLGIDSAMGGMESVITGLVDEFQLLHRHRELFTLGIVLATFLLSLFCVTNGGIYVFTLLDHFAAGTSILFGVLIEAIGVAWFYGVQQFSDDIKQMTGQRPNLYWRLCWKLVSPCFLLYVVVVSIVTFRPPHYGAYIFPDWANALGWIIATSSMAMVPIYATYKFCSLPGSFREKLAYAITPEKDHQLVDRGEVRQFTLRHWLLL

As to `COC(=O)C1C2CC[C@H](C[C@@H]1c1ccc(Cl)cc1)N2C` (some centres undefined), in assay [1], the pIC50 is 7.35.
In the case of `Cc1ccc([C@H]2C[C@H]3CCC([C@H]2C(=O)OC(C)C)N3C)cc1`, the Ratio in assay [2] was 1210. Also, the pIC50 in assay [3] is 8.28; in assay [4], 5.37; in assay [1], 5.19.
Regarding `CCCOC(=O)[C@@H]1C2CC[C@H](C[C@@H]1OC(=O)c1ccccc1)N2C`, the results for the pIC50 in assay [1], in assay [5] and in assay [6] were 5.38, 4.80 and 6.72, respectively.
Regarding `Cc1ccc([C@H]2C[C@H]3CCC([C@H]2C(=O)Oc2ccccc2)N3C)cc1`, in assay [2], the Ratio is 9070. In addition, the pIC50 was 8.49 in assay [3], 4.96 in assay [4] and 4.53 in assay [1].
Consider `CN1C2CC[C@@H]1C[C@H](OC(=O)c1ccccc1)[C@@H]2C(=O)OCCCc1ccccc1`, for which the pIC50 in assay [1] was 6.43; in assay [5] it was 4.60.
Regarding `CN1C2CC[C@@H]1C[C@H](c1ccc(I)cc1)[C@@H]2C(=O)Oc1ccccc1`, the Ratio in assay [2] is 216. Moreover, the pIC50 in assay [3] was 8.82; in assay [4], 4.74; in assay [1], 6.49.
As for `CCOC(=O)[C@@H]1C2CC[C@H](C[C@@H]1OC(=O)c1ccccc1)N2C`, the Ratio in assay [2] was 70. The pIC50 was 6.89 in assay [3], 4.57 in assay [4] and 5.04 in assay [1].
In the same order, the values of `CC(C)OC(=O)[C@@H]1C2CC[C@H](C[C@@H]1c1ccc(I)cc1)N2C` are 721, 9.37, 6.06 and 6.51.
For `COC(=O)[C@@H]1C2CC[C@H](C[C@@H]1c1ccc(I)cc1)N2C`, in that order: 3.3, 8.90, 7.46 and 8.38.
Consider `COC(=O)[C@@H]1C2CC[C@H](C[C@@H]1c1ccccc1)N2C`, for which, in assay [4], the pIC50 is 5.68.
For the compound `CN1C2CC[C@@H]1C[C@H](c1ccc(Cl)cc1)[C@@H]2C(=O)Oc1ccccc1`, the Ratio in assay [2] amounted to 1170. The negative-log IC50 (pIC50) was 8.70 in assay [3], 5.34 in assay [4] and 5.63 in assay [1].
Take `CC(C)OC(=O)[C@@H]1C2CC[C@H](C[C@@H]1c1ccc(Cl)cc1)N2C`: the Ratio in assay [2] was determined as 996. Besides, the negative-log IC50 (pIC50) in assay [3] was 8.85; in assay [4], 5.67; in assay [1], 5.85.
With `CC(C)OC(=O)[C@@H]1C2CC[C@H](C[C@@H]1OC(=O)c1ccccc1)N2C`, in assay [2], the Ratio was determined as 122. Further, the figures for the pIC50 in assay [4] and in assay [1] were 4.63 and 4.59, respectively.
Regarding `CN1C2CC[C@@H]1C[C@H](OC(=O)c1ccccc1)[C@@H]2C(=O)Oc1ccccc1`, the Ratio in assay [2] was 512. For the same compound, the pIC50 in assay [3] was 6.95; in assay [4] it was 4.43; in assay [1] it was 4.24.
Take `COC(=O)[C@H]1[C@@H](c2ccc(F)cc2)C[C@H]2CC[C@H]1N2C`: the results for the pIC50 in assay [4] and in assay [1] were 5.91 and 6.12, respectively.
Consider `COC(=O)[C@@H]1C2CC[C@H](C[C@@H]1c1ccc(C)cc1)N2C`, for which, in assay [3], the pIC50 is 8.77.

The values above are taken from ChEMBL document CHEMBL1125471, “Isopropyl and phenyl esters of 3 beta-(4-substituted phenyl)tropan-2 beta-carboxylic acids. Potent and selective compounds for the dopamine transporter” (J Med Chem, 1992).
